Earlier results on 2 molecules are cited in patent US9820973B2, “Pharmaceutical formulation comprising losartan potassium and chlorthalidone” (Merck Sharp & Dohme B.V., priority 2013, dated 2017).

For `NS(=O)(=O)c1cc(C2(O)NC(=O)c3ccccc32)ccc1Cl` (racemic) [chlorthalidone, (RS)-2-chloro-5-(1-hydroxy-3-oxo-2,3-dihydro-1H-isoindol-1-yl)benzene-1-sulfonamide], under “across the physiologic pH range”, the “Solubility (in words)” value is on record as “low solubility”.

As to `CCCCc1nc(Cl)c(CO)n1Cc1ccc(-c2ccccc2-c2nnn[nH]2)cc1` [Losartan potassium, 2-butyl-4-chloro-1-[p-(o-1H-tetrazol-5-ylphenyl)-benzyl]imidazole-5-methanol], under “acidic media”, the “Behaviour of the salt (in words)” value was “the salt dissociates and the losartan free acid precipitates as a gel layer”. For the same molecule, the “Dissolution of the salt (in words)” value (neutral to basic media) was “readily dissolves”.
